Laboratory results reported in US20230391727A1, “ANALOGUES OF PENTAMIDINE AND METHODS FOR TREATING INFECTIONS” (Auransa Inc., priority 2020, published 2023).
Converted amounts (≈) assume the structure as drawn. Read-outs that look alike come from different tables or passages of the source.

Assays:
K. pneumoniae ATCC 43816 = experiment: Checkerboard assay with rifampicin (FIG. 4); type: cell-based, Klebsiella pneumoniae; details: K. pneumoniae ATCC 43816, FIG. 4
A. baumannii ATCC 17978 = experiment: Checkerboard assay with novobiocin (FIGS. 2, 3, 5, 6); type: cell-based, Acinetobacter baumannii
Text: Novobiocin is an anti-staphylococcal drug, but with limited use. The oral form of novobiocin drug has since been withdrawn from the market due to lack of efficacy. This antibiotic is often used to treat Staphylococcus aureus infection, particularly methicillin resistant S. aureus “MRSA”.

NCI H69 cells = experiment: CellTiter-Glo cell viability assay (cytotoxicity), 8 days; type: cell-based; details: Homo sapiens, 192 h, full growth media
Protocol: The experiment tested pentamidine, Compounds 1-6 in full growth media for 8 days. NCI H69 cells were initially treated with the test compounds on Day 0, and the cells were then replenished with fresh compound dilutions on Day 3. Pentamidine and Compound 1 were tested at 9 concentration points: 100 μM, 33.33 μM, 11.11 μM, 3.70 μM, 1.23 μM, […], 0.05 μM, and 0.02 μM (final DMSO concentration=0.5%). The raw data values from the CellTiter-Glo™ cell viability assay expressed in relative luminescence units were normalized to the vehicle for each individual plate, and any reduction in luminescence indicated a decrease in viability (%). The data was analyzed in GraphPad PRISM using a non-linear sigmoidal plot with variable slope (asymmetric four-point […]), and an IC50 value for each compound was generated based on the normalized dose-response curves and shown in Table 1.

[1] = test system: Blastomyces dermatitidis BD3; experiment: Anti-fungal MIC assay; type: cell-based
Protocol: (§1) The first round of testing included Candida parapsilosis, Candida krusei, Paecilomyces variotii, Candida albicans, Aspergillus fumigatus, and Blastomyces dermatitidis. […] The second round of testing included Candida parapsilosis, Candida krusei, Candida albicans, Candida auris, Candida glabrata, Candida guilliermondii, and Cryptococcus neoformans.
(§2) Stock solutions of the investigational agent were prepared at concentrations 100-times the highest concentration to be tested (6400 μg/ml) using dimethyl sulfoxide. Aliquots of the stock solutions were dispensed into polystyrene vials and stored at −20° C.
(§3) The synthetic medium RPMI-1640 (with glutamine, without bicarbonate, and with phenol red) was used. The RPMI was buffered to a pH of 7.0+0.1 at 25° C. with 0.165M MOPS (3-[N-morpholino] propanesulfonic acid). Sterile U-shaped 96-well cell culture plates were used to perform the MIC assays. Dilutions of the DMSO stocks were prepared in RPMI to achieve 2× concentrations. After the dilutions of the working 2× investigational antifungal solutions were prepared, 0.1 ml of each concentration was transferred into a pre-specified column of the U-shaped 96-well cell culture plate using sterile pipettes.
(§4) Fungal isolates were grown on Sabouraud dextrose agar (yeasts) or potato flake agar (filamentous fungi) and cells were collected after an appropriate period of growth for each species being evaluated (e.g., 48-72 hours for yeasts and 7 days for filamentous fungi). The fungi were suspended in sterile distilled water, and the densities of the fungal suspension were read using a spectrophotometer and adjusted to an appropriate optical density specific for each fungal species. The fungal suspension of each isolate was then diluted in RPMI. A sufficient volume of the test inoculum was prepared to directly inoculate 0.1 ml into each test well of the 96-well cell culture plate. Final inoculum ranges were dependent on the fungal species to be tested (e.g., 0.4×103 to 5×10^3 cells/ml for yeasts and dimorphic fungi, and 0.4×104 to 5×10^4 cells/ml for filamentous fungi). Each well of the 96-well cell culture plate containing the investigational antifungal compounds (0.1 ml volume) was inoculated on the day of the assay with 0.1 ml of the fungal suspension. Growth control wells contained 0.1 ml of fungal suspension and 0.1 ml of the growth medium without antifungal agents. The media control well contained 0.2 ml of the growth medium.
(§5) The microdilution trays were incubated at 35° C. without agitation. […] One positive comparator/control was used for yeast (fluconazole) and one was used for filamentous fungi (voriconazole).

[2] = test system: Blastomyces dermatitidis BD2; experiment: Anti-fungal MIC assay; type: cell-based
Protocol: as §1, §2, §3, §4, §5

[3] = test system: Aspergillus fumigatus AF3; experiment: Anti-fungal MIC assay; type: cell-based
Protocol: as §1, §2, §3, §4, §5

[4] = test system: Aspergillus fumigatus AF293; experiment: Anti-fungal MIC assay; type: cell-based; details: read-out: MIC, 50% growth inhibition
Protocol: as §1, §2, §3, §4, §5

[5] = test system: Aspergillus fumigatus AF2; experiment: Anti-fungal MIC assay; type: cell-based
Protocol: as §1, §2, §3, §4, §5

[6] = test system: Blastomyces dermatitidis BD1; experiment: Anti-fungal MIC assay; type: cell-based
Protocol: as §1, §2, §3, §4, §5

Candida krusei ATCC6258 = experiment: Anti-fungal MIC assay; type: cell-based; details: Pichia kudriavzevii, first round (Table 5)
Protocol: as §1, §2, §3, §4, §5

S. aureus VRS-2 = S. aureus VRS-2 peritonitis infection model; type: in vivo, female ICR mice; details: 50 mg/kg PO QD, 1 h post-infection, p<0.05
Protocol: The efficacy of compound 3 was evaluated in the S. aureus VRS-2 peritonitis infection model. The test article, compound 3 at 0.1, 0.3 and 1 mg/kg, was intraperitoneally (IP) administered twice at 2 and 16 h after infection; as well as once at 2 mg/kg at 2 h post-infection. The control reference agent, linezolid at 50 mg/kg, was orally (PO) administered once at 1 h post-infection. […] All animals in the vehicle group succumbed to infection between Day 1 to Day 2, resulting in 100% mortality, and a mean 15 h survival time. […] In the compound 3 at 1 mg/kg IP BID dose group, one out of eight animals survived till Day 7 of the study period, resulting in 13% survival rate, and a mean 33 h survival time.
For efficacy testing, the 0.4 mg/mL compound 3 solution was prepared by dissolving 1.21 mg of compound 3, corresponding to active ingredient of 1.02 mg with a correction factor of 1.19, in 2.55 mL of WFI. The 0.4 mg/mL compound 3 working solution was further diluted with WFI to generate three lower dosing solutions of 0.2, 0.06 and 0.02 mg/mL. All dosing solutions were soluble and colorless.
PDS supplied vancomycin and linezolid as reference controls for both MIC and in vivo studies. […] The 3.2 mg/mL linezolid 50× stock solution was prepared by dissolving 1.0 mg of linezolid in 0.313 mL of DMSO. Both solutions were colorless and soluble. For efficacy testing, one tablet of linezolid, at 600 mg, was dissolved in 12 mL of 1% Tween 80 in saline (0.9% NaCl) to generate a 50 mg/mL of stock solution. The 50 mg/mL linezolid stock solution was further diluted with 1% Tween 80 in 0.9% NaCl to generate the dosing solution of 5 mg/mL. Both solutions were insoluble with white color.
The S. aureus strain VRS-2 peritonitis infection model was performed with immunocompetent female ICR mice, weighing 22±2 g. All animals were specific pathogen free. The PDS standard protocol for preparing S. aureus cultures for mouse infection studies was followed. A 0.2 mL aliquot of a single-use glycerol stock (at −80° C.) was used to seed […] heart infusion (BHI) and then incubated at 35-37° C. with shaking (250 rpm) for 8 h. Bacterial cells in the 20 mL was pelleted by centrifugation (3,500×g) for 15 minutes, and then re-suspended in 10 mL cold phosphate buffer saline (PBS). The optical density, OD620 nm, was measured and used to guide dilution. The PBS suspensions were stored on ice for no more than 1 h prior to animal inoculation. The dilutions were performed by 1:1 dilution of BHI broth containing hog gastric mucin to obtain the target inoculum density, 1×10^8 CFU/mouse, per 0.5 mL with 5% mucin (final concentration). The actual colony count was determined by plating dilutions to nutrient agar (NA) plates followed by 20-24 h incubation at 35-37° C.
On Day 0, animals were infected with bacterial suspension with 5% mucin by intraperitoneal injection. The actual inoculum was 1.93×10^8 CFU/mouse with a target inoculum of 1×10^8 CFU/mouse in the peritonitis infection model. Test article, compound 3, was formulated in WFI and intraperitoneally (IP) administered with the dose schedule and concentrations indicated in the study design. Doses were administered once at 2 h post-infection or twice (BID) at 2 and 16 h post-infection. The animals were monitored for survival up to 7 days, twice daily (AM 9:00/PM 17:00). […]
Animals were monitored for mortality twice daily (AM 9:00/PM 17:00) for 7 days after infection. […]

S. aureus ATCC 43300 = experiment: MIC assay against gram positive S. aureus; type: cell-based; details: Staphylococcus aureus, ATCC43300
Protocol: (§6) Then the compound stocks were serially 2-fold diluted in a v-bottom 96-well plate to make 100-fold working solutions. One day before the test, −80° C. glycerol stock of S. aureus strains were streaked on cation-adjusted Mueller-Hinton agar (CAMHA) plates. On the day of test, fresh bacterial colonies were suspended into sterile saline to an OD600 nm of ˜0.1 (equivalent to 0.5 McFarland). The bacterial suspension was firstly 20-fold followed by 50-fold diluted in cation-adjusted Mueller-Hinton broth (CAMHB) plates to 1×10^6 CFU/PO. 198 ul of the inoculum was added into the round-bottom 96-well plates prefilled with 2 ul of 100-fold compound working solutions. After incubating at 35 +/−2° C. in ambient atmosphere for 18-24 h, MIC was recorded as the lowest concentration under which no visible bacterial growth was observed.

S. aureus ATCC 27660 = experiment: MIC assay against gram positive S. aureus; type: cell-based; details: Staphylococcus aureus, ATCC27660
Protocol: as §6

[7] = test system: Staphylococcus aureus BAA-1556 (MRSA); experiment: MIC assay against gram positive and antibiotic-resistant S. aureus; type: cell-based; details: Staphylococcus aureus BAA-1556, MRSA; read-out: MIC
Protocol: (§7) The MICs of vancomycin and linezolid were determined as quality controls and the MIC values of each strain met the acceptance criteria based on PDS historical reference data.
(§8) The direct colony suspension method was used to prepare inoculated broth. Isolated colonies were taken from an 18-24 h culture plate. Optical density measurements (OD620 nm) were used to estimate the bacterial density. The test article, compound 3, and reference control stock solutions were prepared in 100% DMSO as 50× stock solutions. The 50× stock solutions were diluted by 2-fold serial titrations with 100% DMSO for a total of 11 concentrations. A 4 μL aliquot of each dilution was added to 196 μL of cation-adjusted Mueller Hinton Broth II medium seeded with the organism in wells of a 96 well plate. The final vehicle concentration was two percent (2%) in all assay wells. The final bacterial count was 2 to 8×10^5 CFU/mL. The final compound 3 concentration range was 16 to 0.016 μg/mL. Each test substance dilution was evaluated in duplicate on one test occasion. Vehicle-control and reference controls were used as blank and positive controls, respectively. Plates were incubated at 35-37° C. for 18 h. The test plates were visually examined and each well was visually scored for growth or complete inhibition of growth. The MIC value was recorded.

[8] = test system: Staphylococcus aureus VRS-2 (VRSA); experiment: as above; type: cell-based; details: Staphylococcus aureus VRS-2, VRSA; read-out: MIC
Protocol: as §7, §8

[9] = test system: Staphylococcus aureus ATCC 33591 (MRSA); experiment: as above; type: cell-based; details: Staphylococcus aureus ATCC 33591, MRSA; read-out: MIC
Protocol: as §7, §8

[10] = test system: Staphylococcus aureus ATCC 19636; experiment: as above; type: cell-based; details: ATCC19636; Staphylococcus aureus ATCC 19636; read-out: MIC
Protocol: as §7, §8

[11] = read-out: MIC, 50% growth inhibition
[12] = read-out: MIC, 100% growth inhibition

Structure (SMILES): N=C(N)c1cccc(CCCCCCCc2cccc(C3CCNC3)c2)c1 (centres unmarked) [Compound 2, 3-(7-(3-(pyrrolidin-3-yl)phenyl)heptyl)benzimidamide]
- synergy with rifampicin (K. pneumoniae ATCC 43816): increased level of synergy
- synergistic effect with novobiocin (A. baumannii ATCC 17978): clear synergistic effects
- synergy with novobiocin as compared to pentamidine with novobiocin (A. baumannii ATCC 17978): superior synergy
- MIC (A. baumannii ATCC 17978; Acinetobacter baumannii, ATCC17978, substance alone): 138 µM
- IC50 (NCI H69 cells): 1.5 µM

Structure (SMILES): C[C@@H](c1ncncc1F)[C@](O)(Cn1cncn1)c1ccc(F)cc1F [Voricolazole, voriconazole, reference compound]
- MIC [1, 11]: ≤ 0.03 µg/mL
- MIC [1, 12]: 0.125 µg/mL (≈ 0.358 µM)
- MIC [2, 11]: ≤ 0.03 µg/mL
- MIC [2, 12]: 0.125 µg/mL (≈ 0.358 µM)
- MIC [3, 11]: 2 µg/mL (≈ 5.73 µM)
- MIC [3, 12]: 4 µg/mL (≈ 11.5 µM)
- MIC [4]: 0.25 µg/mL (≈ 0.716 µM)
- MIC [5, 11]: > 16 µg/mL
- MIC [5, 12]: > 16 µg/mL
- MIC [6, 11]: ≤ 0.03 µg/mL
- MIC [6, 12]: 0.06 µg/mL (≈ 0.172 µM)
- MIC (Candida krusei ATCC6258; ATCC6258, Candida krusei ATCC6258, read-out: MIC, 50% growth inhibition): ≤ 0.03 µg/mL
- MIC (Candida krusei ATCC6258; ATCC6258, read-out: MIC, 100% growth inhibition, Candida krusei ATCC6258): 0.125 µg/mL (≈ 0.358 µM)

Structure (SMILES): CC(=O)NC[C@H]1CN(c2ccc(N3CCOCC3)c(F)c2)C(=O)O1 [Linezolid, reference compound]
- survival rate (S. aureus VRS-2): 100%
- mean survival time (S. aureus VRS-2; maximum set at 180 h): 180 h
- MIC (S. aureus ATCC 43300): 4 µg/mL (≈ 11.9 µM)
- MIC (S. aureus ATCC 27660): 4 µg/mL (≈ 11.9 µM)
- MIC [7]: 2 µg/mL (≈ 5.93 µM)
- MIC [8]: 4 µg/mL (≈ 11.9 µM)
- MIC [9]: 2 µg/mL (≈ 5.93 µM)
- MIC [10]: 4 µg/mL (≈ 11.9 µM)
